Experimental findings from ChEMBL document CHEMBL1201862, “PubChem BioAssay data set” (2004) are described below.

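Where inhibition never reached the appropriate level, the endpoint shown equals the highest concentration tested. Otherwise, values were interpolated linearly from a five-concentration, 48-hour dose response in 96-well plates. GI50: concentration for 50% inhibition of growth.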 Active and inactive are the calls of the source. Cut-off read from the data, not from the text of the source: active = GI50 up to about 1.1 µM and inactive = higher.

Some test systems named below: K562; OVCAR-8; SK-MEL-2; HOP-62; U-251; KM12; MCF7; HCT-116; UACC-62; MDA-MB-231; OVCAR-4; SF-539; CAKI-1; OVCAR-3; COLO 205; SK-OV-3; UO-31; 786-0; RPMI-8226; NCI-H23.
What all share (assay): NCI-60 cell line screen, 48 h

Consider `CN(Cc1cc(Cl)cc(Cl)c1)CC(C(=O)c1ccccc1)c1ccccc1` (stereo not given), for which the GI50 in the test with K562 was 0.962 µM (active); with OVCAR-8 it was 4.2 µM (inactive); with SK-MEL-2 it was 10.2 µM (inactive); in the test on HOP-62 it was 24.8 µM (inactive); with U-251 it was 1.38 µM (inactive); with KM12 it was 3.78 µM (inactive). For the same compound, the GI50 with MCF7 is 3.73 µM (inactive); with HCT-116, 0.689 µM (active); in the test on UACC-62 it was 2.9 µM (inactive); with MDA-MB-231, 6.81 µM (inactive); with OVCAR-4, 2.07 µM (inactive); in the test on SF-539 it was 5.77 µM (inactive). Further, the GI50 with CAKI-1 was 1.03 µM (active); in the test with OVCAR-3 it was 0.605 µM (active); in the test on COLO 205, 3.92 µM (inactive); in the test with SK-OV-3 it was 10.6 µM (inactive); in the test on UO-31 it was 6.46 µM (inactive); in the test with 786-0, 2.49 µM (inactive). Moreover, the results for the GI50 in the test on RPMI-8226 and with NCI-H23 were 0.1 µM (active) and 1.7 µM (inactive), respectively.

As for `CCOC(=O)C1=C(C)N(Cc2ccccc2)C2(O)C=CC(=O)C3C(=O)N(c4ccccc4)C(=O)C132` (stereo not given), the GI50 was 3.66 µM (inactive) in the test with K562; 1.23 µM (inactive) in the test on OVCAR-8; 1.98 µM (inactive) in the test with SK-MEL-2; 2.35 µM (inactive) in the test with HOP-62; 2.69 µM (inactive) with U-251; 1.99 µM (inactive) in the test on KM12. Further, the GI50 with MCF7 was 2.25 µM (inactive); in the test with HCT-116 it was 1.15 µM (inactive); in the test with UACC-62 it was 1.71 µM (inactive); in the test with MDA-MB-231, 3.96 µM (inactive); in the test on OVCAR-4, 1.98 µM (inactive); in the test with SF-539, 1.6 µM (inactive). Besides, the GI50 in the test on CAKI-1 was 1.53 µM (inactive); with OVCAR-3 it was 2.28 µM (inactive); in the test on COLO 205 it was 1.51 µM (inactive); in the test on SK-OV-3, 6.75 µM (inactive); in the test with UO-31, 1.89 µM (inactive); with 786-0, 1.59 µM (inactive). Also, the GI50 in the test on RPMI-8226 is 1.03 µM (active); with NCI-H23, 2.56 µM (inactive).

Take `C=C1C(=O)OC2CC3(C)OC3CC/C(C)=C/C(OC(C)=O)C12` (stereo not given): the GI50 was 2.47 µM (inactive) in the test on K562; 4.71 µM (inactive) with OVCAR-8; 15.5 µM (inactive) in the test with SK-MEL-2; 18.7 µM (inactive) with HOP-62; 18.6 µM (inactive) in the test on U-251; 15.1 µM (inactive) in the test on KM12. Besides, the GI50 in the test with MCF7 was 4.59 µM (inactive); with HCT-116, 4.05 µM (inactive); with UACC-62, 9.89 µM (inactive); in the test on MDA-MB-231, 12.4 µM (inactive); in the test with OVCAR-4, 6.01 µM (inactive); in the test on SF-539, 6.37 µM (inactive). Moreover, the GI50 in the test with CAKI-1 is 2.13 µM (inactive); in the test on OVCAR-3, 10.5 µM (inactive); in the test on COLO 205, 1.75 µM (inactive); in the test with SK-OV-3, 20 µM (inactive); with UO-31, 13.6 µM (inactive); with 786-0, 4.6 µM (inactive). The figures for the GI50 with RPMI-8226 and in the test with NCI-H23 were 2.13 µM (inactive) and 13.3 µM (inactive), respectively.

For `O=C(O)c1ccc(Nc2nc3ccc(C(F)(F)F)cc3nc2C(=O)O)cc1`, the GI50 in the test on K562, in the test on OVCAR-8, in the test with SK-MEL-2, in the test on HOP-62, in the test with U-251 and in the test with KM12 was > 100 µM (inactive) each time. Moreover, the GI50 in the test on MCF7, with HCT-116, with UACC-62, in the test with MDA-MB-231, with OVCAR-4 and in the test with SF-539 was > 100 µM (inactive) throughout. In addition, the GI50 with CAKI-1, in the test on OVCAR-3, with COLO 205, in the test with SK-OV-3, in the test on UO-31 and in the test with 786-0 was > 100 µM (inactive) throughout. For the same compound, the GI50 with RPMI-8226 and in the test with NCI-H23 was > 100 µM (inactive) in each case.

Consider `CC(=O)NN/C=N/C(C#N)=C(\N)C#N`, for which the GI50 in the test on K562, with OVCAR-8, with SK-MEL-2, in the test with HOP-62, in the test on U-251 and in the test on KM12 was > 100 µM (inactive) in each case. For the same compound, the GI50 in the test on MCF7, in the test on HCT-116, in the test on UACC-62, in the test on MDA-MB-231, in the test on OVCAR-4 and in the test on SF-539 was > 100 µM (inactive) each time. Also, the GI50 in the test with CAKI-1, in the test with OVCAR-3, with COLO 205, in the test with SK-OV-3, in the test on UO-31 and in the test with 786-0 was > 100 µM (inactive) throughout. Moreover, the GI50 in the test on RPMI-8226 and in the test with NCI-H23 was > 100 µM (inactive) each time.

Consider `CC(=O)O[C@@H]1C[C@]2(C(=O)c3ccccc3)C(=O)C(=O)S[C@]12c1ccccc1`, for which the GI50 in the test with K562 was 24.8 µM (inactive); in the test with OVCAR-8, 36.4 µM (inactive); in the test with SK-MEL-2, 38.5 µM (inactive); in the test on HOP-62 it was 61 µM (inactive); in the test with U-251, 31.3 µM (inactive); in the test on KM12, 41.1 µM (inactive). Moreover, the GI50 with MCF7 is 30 µM (inactive); in the test with HCT-116 it was 46.6 µM (inactive); in the test on UACC-62 it was 39.7 µM (inactive); with MDA-MB-231 it was 58.1 µM (inactive); in the test on OVCAR-4 it was 56.1 µM (inactive); in the test on SF-539, 24.2 µM (inactive). Also, the GI50 was 42.9 µM (inactive) in the test with CAKI-1; 69.8 µM (inactive) with OVCAR-3; 38.3 µM (inactive) in the test on COLO 205; 50 µM (inactive) in the test on SK-OV-3; 42.8 µM (inactive) with UO-31; 35.5 µM (inactive) in the test with 786-0. Also, the GI50 in the test on RPMI-8226 was 30.4 µM (inactive); in the test on NCI-H23 it was 45 µM (inactive).

With `N#CC(C#N)[C@@H]1CCC=C(Sc2ccccc2)[C@H]1Sc1ccccc1`, the GI50 is 2.36 µM (inactive) in the test with K562; 2.7 µM (inactive) with OVCAR-8; 3.07 µM (inactive) in the test with SK-MEL-2; 3.2 µM (inactive) with HOP-62; 5.81 µM (inactive) in the test on U-251; 3 µM (inactive) in the test with KM12. Further, the GI50 with MCF7 is 2.95 µM (inactive); in the test on HCT-116, 2.11 µM (inactive); with UACC-62, 3.56 µM (inactive); in the test on MDA-MB-231, 4.05 µM (inactive); in the test on OVCAR-4, 4.6 µM (inactive); in the test with SF-539, 2 µM (inactive). The GI50 was 2.65 µM (inactive) in the test on CAKI-1; 3.44 µM (inactive) in the test with OVCAR-3; 2.2 µM (inactive) in the test on COLO 205; 4.54 µM (inactive) with SK-OV-3; 5.31 µM (inactive) in the test with UO-31; 2.17 µM (inactive) in the test on 786-0. Also, the GI50 in the test on RPMI-8226 was 2.28 µM (inactive); with NCI-H23, 3.96 µM (inactive).

Turning to `O=C(O)C1OC(n2cc(F)c(=O)[nH]c2=O)CC1O` (stereo not given), the GI50 in the test with K562 is > 86.1 µM (inactive); in the test on OVCAR-8, 17.5 µM (inactive); with SK-MEL-2 it was > 100 µM (inactive); in the test on HOP-62, 5.22 µM (inactive); with U-251 it was 35.2 µM (inactive); with KM12, > 95.9 µM (inactive). For the same compound, the GI50 in the test with MCF7 was 0.9 µM (active); in the test with HCT-116, 23.1 µM (inactive); in the test on UACC-62, 6.15 µM (inactive); in the test on MDA-MB-231 it was > 39.1 µM (inactive); in the test on OVCAR-4, > 100 µM (inactive); in the test with SF-539 it was 1.87 µM (inactive). Further, the GI50 in the test with CAKI-1 was > 39.5 µM (inactive); in the test with OVCAR-3, 60.1 µM (inactive); in the test with COLO 205, 61.5 µM (inactive); with SK-OV-3, > 94.8 µM (inactive); in the test on UO-31, 18.6 µM (inactive); with 786-0 it was 15.6 µM (inactive). Moreover, the results for the GI50 in the test on RPMI-8226 and with NCI-H23 were 61.7 µM (inactive) and 38.7 µM (inactive), respectively.

As to `COc1ccc(-c2oc3c(OC)c(OC)c(OC)c(OC)c3c(=O)c2OC)cc1OC` [3,5,6,7,8,3',4'-HEPTAMETHOXYFLAVONE], the GI50 was 31.5 µM (inactive) in the test with K562; 23.6 µM (inactive) in the test on OVCAR-8; 29.6 µM (inactive) in the test on SK-MEL-2; 14.5 µM (inactive) in the test with HOP-62; 51.5 µM (inactive) with U-251; 47.5 µM (inactive) in the test on KM12. In addition, the GI50 in the test on MCF7 is 21.3 µM (inactive); in the test with HCT-116, 47.4 µM (inactive); in the test with UACC-62, 48.3 µM (inactive); in the test on MDA-MB-231, 59.7 µM (inactive); in the test with OVCAR-4, 47.2 µM (inactive); in the test on SF-539 it was 65.8 µM (inactive). Besides, the GI50 is 53.8 µM (inactive) with CAKI-1; 18.7 µM (inactive) in the test with OVCAR-3; 65.6 µM (inactive) with COLO 205; > 100 µM (inactive) in the test on SK-OV-3; 23.6 µM (inactive) in the test on UO-31; 24.5 µM (inactive) in the test on 786-0. The results for the GI50 in the test on RPMI-8226 and in the test on NCI-H23 were 12.4 µM (inactive) and 72.6 µM (inactive), respectively.
